According to US20250304700A1, “ANTI-BLOOD DENDRITIC CELL ANTIGEN 2 ANTIBODIES AND USES THEREOF” (Biogen MA Inc., priority 2012, published 2025):

Columns and labels:
[1] = test system: TLR9-induced IFNα production in whole blood; assay: Whole blood assay, TLR9-induced IFNα production; type: cell-based, human; details: CpG-A stimulated whole blood
Method: Whole blood was drawn from heparinized venous blood of healthy donors. […] CpG-A was added at 200 μg/mL, which was determined to be optimal for stimulation of IFNα production in whole blood. Plates were incubated for 18 hours at 37° C. and supernatants collected for use in IFNα ELISA assays (PBL InterferonSource). The assays were performed according to the manufacturer's protocol. Shown in FIG. 15A is a representative experiment of 6 independent experiments performed.
Specifically, whole blood from 2 SLE patients or 2 healthy donors was provided by Bioreclamation LLC by overnight shipping. […] Plates were incubated for 18 hours at 37° C. and supernatants collected for use in IFNα ELISA assays (PBL InterferonSource). The assays were performed according to the manufacturer's protocol.
CpG-A was added at 75 μg/mL (open square), which was determined to be optimal for stimulation of IFNα production in whole blood. Plates were incubated for 18 hours at 37° C. and supernatants collected for use in IFNα ELISA assays (PBL InterferonSource).
The whole blood was then collected, lysed, and BDCA2 expression was assessed by flow cytometry using the FITC-conjugated non-cross blocking antibody 2D6. […] The supernatants were harvested and evaluated for IFNα by ELISA.

surface human BDCA2 = molecular target: T1, surface human BDCA2 (Homo sapiens, UniProt Q8WTT0); assay: Direct binding dilution titration FACS on surface human BDCA2; details: transfected cells co-expressing BDCA2 and FcεRIγ
T1 construct: stably transfected DG44 CHO cells co-expressing full-length BDCA2 and FcεRIγcDNAs (human or cynomolgus monkey); expressed in transfected cells
T1 sequence (Q8WTT0 1-213): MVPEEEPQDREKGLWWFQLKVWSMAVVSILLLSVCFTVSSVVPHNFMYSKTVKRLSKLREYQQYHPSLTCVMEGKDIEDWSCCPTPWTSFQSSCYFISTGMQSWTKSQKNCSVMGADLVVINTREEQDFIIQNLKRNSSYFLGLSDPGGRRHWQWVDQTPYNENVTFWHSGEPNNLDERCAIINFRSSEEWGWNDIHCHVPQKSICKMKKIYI
T1 sequence (P30273 19-86 partner): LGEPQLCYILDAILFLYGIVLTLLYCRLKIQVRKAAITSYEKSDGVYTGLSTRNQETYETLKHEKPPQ
Method: Expression vectors (ch24F4 heavy chain vectors pYL670 or pYL672 and ch24F4 light chain vector pYL671) were co-transfected into 293-EBNA cells and transfected cells were tested for antibody secretion and specificity (empty vector- and a molecularly cloned irrelevant mAb vector-transfected cells served as controls). […] Direct FACS binding to surface human BDCA2 confirmed the specificity of ch24F4. The EC50 binding of both variants of ch24F4 was equivalent to that of the murine 24F4 mAb by direct binding to surface expressed human BDCA2 by dilution titration FACS assay. Stable CHO cell lines secreting ch24F4-huIgG1, kappa mAb and agly ch24F4-huIgG4/G1 hybrid kappa mAb were produced by co-transfection with pYL672/pYL671 and pYL670/pYL671, respectively.
Site-directed mutagenesis was performed using Agilent's QuikChange II mutagenesis kit following the manufacturer's recommended protocol. The C95S variant was constructed using the mutagenic primer 5′ GCAACCTATTACTGTCAACAAAGTAATGAGGATCCTCGGAC 3′ (SEQ ID NO: 38) and its reverse complement, which introduced a new HincII site, producing plasmid pEAG2678. The C95T variant was constructed using the mutagenic primer 5′ CAACCTATTACTGTCAGCAAACTAATGAAGATCCTCGGACGTTCG 3′ (SEQ ID NO: 39) and its reverse complement, which removed a BamHI site, producing plasmid pEAG2679. […]

For “BIIB059: humanized IgG1 anti-BDCA2 antibody, mature heavy chain SEQ ID NO: 4 and mature light chain SEQ ID NO: 3”, the “other cytokines and chemokines in whole blood” value [1] was “inhibition of a large array of cytokines and chemokines”.
For “24F4S: hu24F4 H4/L1 with C95S light chain; differs from BIIB059 by 1 amino acid residue”, the “direct binding to surface human BDCA2, in words” value (surface human BDCA2) was ““best” variants”.
